# Data reported in ChEMBL document CHEMBL1124916, “Neural networks applied to quantitative structure-activity relationship analysis” (1990).
# Where “and” joins values, the source holds several entries; their conditions need not be identical. Equal entries are not always repeated.
# Key:
# Type in all cases: functional
# [1] = Compound was evaluated for the Anti-fighting behavior.; design: scale not given here
# [2] = Evaluation for the Anti-pentylenetetrazole effect.; design: unit not given here
# Mus musculus [3] = species: Mus musculus; experiment: Minimum Effective Dose (MED) which cause 40% increase in life span, after singular injection at log (1/C).
# Mus musculus [4] = species: Mus musculus; experiment: Minimum Effective Dose (MED) which cause 40% increase in life span, after chronic injection at log (1/C).
# Mus musculus [5] = species: Mus musculus; experiment: Optimal Dose (OD) which cause maximum increase in the life span, after chronic injection at log (1/C).
# Mus musculus [6] = species: Mus musculus; experiment: Optimal Dose (OD) which cause maximum increase in the life span, after singular injection at log (1/C).
SMILES,Anti-fighting behaviour [1],Anti-pent effect [2],further results
O=C1CN=C(c2ccccc2)c2cc(F)ccc2N1,3.4,,
CN(C)CCN1C(=O)CN=C(c2ccccc2)c2cc(Cl)ccc21,3.53,4.73,
CSc1ccc2c(c1)C(c1ccccc1)=NCC(=O)N2C,3.87,3.6,
O=C1CN=C(c2ccccc2F)c2cc(Cl)ccc2N1,4.76,6.46,
CNC(=O)CN1C(=O)CN=C(c2ccccc2)c2cc([N+](=O)[O-])ccc21,4.55,5.29,
COCCOC(COC(N)=O)C1=C(N2CC2)C(=O)C(C)=C(N2CC2)C1=O (stereo not given),,,MED (Mus musculus [3]): 5.45; MED (Mus musculus [4]): 6.03; OD (Mus musculus [5]): 5.39; OD (Mus musculus [6]): 4.96
CNC(=O)CN1C(=O)CN=C(c2ccccc2)c2cc(C(F)(F)F)ccc21,3.69,5.06,
CN1C(=O)CN=C(c2ccccc2Cl)c2cc([N+](=O)[O-])ccc21,5.12,6.92,
CCN1C(=O)CN=C(c2ccccc2)c2cc(Cl)ccc21,4.17,4.9,
C=CCN1C(=O)CN=C(c2ccccc2)c2cc(Cl)ccc21,4.49,5.35,
C=CCN1C(=O)CN=C(c2ccccc2)c2cc(C(F)(F)F)ccc21,4.54,5.03,
CN1C(=O)CN=C(c2ccccc2C(F)(F)F)c2cc([N+](=O)[O-])ccc21,4.86,5.71,
CN1C(=O)CN=C(c2ccccc2Cl)c2cc(Cl)ccc21,4.5,6.03,
O=C1CN=C(c2ccccc2)c2cc(Cl)ccc2N1CC1CC1,4.51,4.9,
CN(C)c1ccc2c(c1)C(c1ccccc1)=NCC(=O)N2C,3.86,4.69,
CN(C)C(=O)CN1C(=O)CN=C(c2ccccc2)c2cc(Cl)ccc21,4.25,5.35,
N#Cc1ccc2c(c1)C(c1ccccc1)=NCC(=O)N2,3.81,5.3,
CN1C(=O)CN=C(c2ccccc2F)c2cc(F)ccc21,,3.33,
O=C1CN=C(c2ccccc2)c2cc([N+](=O)[O-])ccc2N1,4.75,5.6,
CSc1ccc2c(c1)C(c1ccccc1)=NCC(=O)N2,4.15,4.15,

SMILES,Anti-fighting behaviour [1],Anti-pent effect [2],further results
CN1C(=O)CN=C(c2ccccc2F)c2ccccc21,3.83,4.53,
O=C1CN=C(c2ccccc2)c2cc(Cl)ccc2N1CCCO,3.61,4.34,
O=C1CN=C(c2ccccc2Cl)c2cc([N+](=O)[O-])ccc2N1,4.2,6.3,
NN1C(=O)CN=C(c2ccccc2)c2cc([N+](=O)[O-])ccc21,5.17,5.77,
CN1C(=O)CN=C(c2ccccc2)c2cc(C#N)ccc21,4.74,5.44,
COc1ccccc1C1=NCC(=O)Nc2ccc(Cl)cc21,3.48,4.6,
CN1C(=O)CN=C(c2ccccc2F)c2cc(Cl)ccc21,4.78,5.88,
O=C1CN=C(c2ccccc2)c2cc(Cl)ccc2N1Cc1ccccc1,3.56,4.64,
CCN(CC)CCN1C(=O)CN=C(c2ccccc2F)c2cc(Cl)ccc21,4.29,5.38,
CN(C)CCN1C(=O)CN=C(c2ccccc2)c2cc([N+](=O)[O-])ccc21,4.25,4.7,
O=C1CN=C(c2ccccc2Cl)c2cc(Cl)ccc2N1,5.18,5.85,
C[S+]([O-])c1ccc2c(c1)C(c1ccccc1)=NCC(=O)N2 (stereo not given),,4.08,
O=C1CN=C(c2ccccc2)c2ccccc2N1,3.37,,
CCC(C)CN1C(=O)CN=C(c2ccccc2)c2cc(Cl)ccc21 (stereo not given),3.53,4.99,
CC1=C(N2CC2)C(=O)C(CCCC2=C(N3CC3)C(=O)C(C)=C(N3CC3)C2=O)=C(N2CC2)C1=O,,,MED (Mus musculus [4]): 5.82; OD (Mus musculus [5]): 5.39
O=C1CN=C(c2ccccc2Br)c2cc(Cl)ccc2N1,4.85,5.77,
CN(C)CCCN1C(=O)CN=C(c2ccccc2)c2cc([N+](=O)[O-])ccc21,3.61 and 3.96,5.82 and 4.28,
O=C1CN=C(c2ccccc2)c2cc(C(F)(F)F)ccc2N1,4.48,5.48,
CN(C)c1ccc2c(c1)C(c1ccccc1)=NCC(=O)N2,,3.84,
